Like-named read-outs stand apart in the source and are kept apart here. Blank lines part the entries; values can stand above or below the compound they belong to.
Assays:
Jurkat lymphocytes = assay type: cell-based
Method: Cellular Loading of Nitroxides. Jurkat lymphocytes were cultured and loaded with nitroxides as previously described (5,6). […] After incubation, cells were washed 3 times in Hanks' Balanced Salt Solution (HBSS), and resuspended in […] HBSS. To lyse cells, […] digitonin was added to each cell suspension, which was then sonicated for […] in a bath sonicator (model G1 12SPIG, Laboratory Supplies Company, Inc., Hicksville, N.Y.). The lysate was assayed for nitroxide content by EPR spectroscopy. […] EPR Spectroscopy. EPR spectra were recorded on an X-band spectrometer (model E-109, Varian Inc., Palo Alto, Calif.) at the following settings: microwave power, 20 mW; microwave frequency, 9.55 GHz; field set, 3335 G; modulation frequency, 1 kHz; modulation amplitude, 0.5 G; field sweep, 80 G at 26.7 G min^-1 Where the amplitude of only the center spectral line was required, the sweep width was 8 […] software (Scientific Software Solutions, Northville, Mich.) was used for spectrometer control and data acquisition. Nitroxide signal was measured as the peak-to-trough amplitude of the center line of the three-line spectrum.

[1] = In vivo EPR: nitroxide entrapped in brain after iv injection and saline wash of head vasculature; details: mice, vasculature washed with normal saline
[2] = Determination of logP of labile esters from HPLC capacity factors; details: pH 6
[3] = mouse, in vivo, iv
[4] = pH 6
[5] = literature values used for logP vs. logk' calibration line; cited from earlier work

Compound: 3-heptanoylmethoxycarbonyl-2,2,5,5-tetramethyl-1-pyrrolidinyloxyl [Ester 7]
intracellular loading of nitroxide [1] (Jurkat lymphocytes): no additional improvement in loading

Compound: CC(=O)OCOC(=O)C1CC(C)(C)N([O])C1(C)C (centres unmarked) [Ester 2, 3-Acetoxymethoxycarbonyl-2,2,5,5-tetramethyl-1-pyrrolidinyloxyl]
percentage of original dose crossed the blood brain barrier and entrapped in the brain as nitroxide [1] ([1]; 10-min point): about 42% | percentage of original dose crossed the blood brain barrier and entrapped in the brain as nitroxide [1] ([1]; 20-min point): about 42%

Compound: CCC(=O)OCOC(=O)C1CC(C)(C)N([O])C1(C)C (centres unmarked) [Ester 3, 3-propanoylmethyloxycarbonyl-2,2,5,5-tetramethyl-1-pyrrolidinyloxyl]
intracellular loading of nitroxide [1] (Jurkat lymphocytes): negligible effect on intracellular loading

Compound: CCCCC(=O)OCOC(=O)C1CC(C)(C)N([O])C1(C)C (centres unmarked) [Ester 4, 3-pentanoylmethoxycarbonyl-2,2,5,5-tetramethyl-1-pyrrolidinyloxyl]
percentage of original dose crossed the blood brain barrier and entrapped in the brain as nitroxide [1] [3]: about 65% | logP [4]: 2.67

Compound: C[C@]12CCC(=O)C=C1CC[C@@H]1[C@@H]2[C@@H](O)C[C@@]2(C)[C@H]1CC[C@]2(O)C(=O)CO [hydrocortisone]
known logP [5]: 1.53

Now from value to compound:

chromatographic logP [2]: 1.33
Compound: CCC(=O)OCOC(=O)C1CC(C)(C)N(O)C1(C)C (centres unmarked) [Ester 3]

chromatographic logP [2]: 2.67
Compound: CCCCC(=O)OCOC(=O)C1CC(C)(C)N(O)C1(C)C (centres unmarked) [Ester 4]

logP [4]: 2.60
Compound: CC(C)(C)C(=O)OCOC(=O)C1CC(C)(C)N([O])C1(C)C (centres unmarked) [Ester 6]

chromatographic logP [2]: 3.54
Compound: CCCCCCC(=O)OCOC(=O)C1CC(C)(C)N(O)C1(C)C (centres unmarked) [Ester 7]

From patent publication US20100260684A1, “USE OF 3-ALKANOYLOXYMETHOXYCARBONYL NITROXIDE ESTERS AS OXIMETRY PROBES FOR MEASUREMENT OF OXYGEN STATUS IN TISSUES” (priority 2007, published 2010)
